System: CCl4 induced hepatic injury
Assay: Hepatoprotective potential against CCl4 induced hepatic injury (prophylactic)
Type: in vivo, Rodents
Conditions: for ALP % protection / Albumin % protection / Bilirubin % protection / GOT % protection / GPT % protection / GSH % protection / LP % protection / TG % protection: value within parenthesis
Text: The compound has been bioevaluated for hepatoprotective/antihepatotoxic activity by using a comprehensive study design annexed herewith as Annexure-2. The parameters studied during the bioevaluation to establish the bioefficacy and optimum dose were preferred using the kits (Clonital, Italy and Accurex Biomedical Pvt. Ltd Thane). The list of the parameters is given in Annexure-2 appended herewith. The dose response graphs with respect to different parameters in comparison with the standard drug with silymarin and glycyrrhizin are given in Annexure-3 appended herewith.
Hepatoprotective activity (H) was calculated by the following equation : H = [1-(TC-V/VC-V)]x100 [formula]
Where TC, VC, and V are drug + toxin, vehicle + toxin and vehicle treated groups of animals respectively. Table-1: Hepatoprotective potential of Acteoside against CCl4 induced hepatic injury in Rodents Prophylactic).

[1] = 0.625 mg/kg p.o. + CCl4 1 ml/kg p.o., prophylactic, mean ± SE of six animals
[2] = 0.625 mg/kg p.o. + CCl4 1 ml/kg p.o., prophylactic
[3] = 1.25 mg/kg p.o. + CCl4 1 ml/kg p.o., prophylactic, mean ± SE of six animals
[4] = 1.25 mg/kg p.o. + CCl4 1 ml/kg p.o., prophylactic
[5] = 2.5 mg/kg p.o. + CCl4 1 ml/kg p.o., prophylactic, mean ± SE of six animals
[6] = 2.5 mg/kg p.o. + CCl4 1 ml/kg p.o., prophylactic
[7] = 5.0 mg/kg p.o. + CCl4 1 ml/kg p.o., prophylactic, mean ± SE of six animals
[8] = 5.0 mg/kg p.o. + CCl4 1 ml/kg p.o., prophylactic
[9] = Acteoside only (Per-se), 5 mg/kg p.o., no CCl4, mean ± SE of six animals
[10] = 100 mg/kg p.o. + CCl4 1 ml/kg p.o., prophylactic, mean ± SE of six animals
[11] = 100 mg/kg p.o. + CCl4 1 ml/kg p.o., prophylactic, mean ± SE of six animals, unit = µ mole pyruvate/min/L
[12] = 100 mg/kg p.o. + CCl4 1 ml/kg p.o., prophylactic

SMILES: C[C@@H]1O[C@@H](O[C@@H]2[C@@H](O)[C@H](OCCc3ccc(O)c(O)c3)O[C@H](CO)[C@H]2OC(=O)/C=C/c2ccc(O)c(O)c2)[C@H](O)[C@H](O)[C@H]1O [Acteoside, β-(3',4'-dihydroxyphenyl) ethyl -O-α-L-rhamnopyranosyl (1→3)-β-D-(4-O-caffeoyl)-glucopyranoside]
- Hepatic parameters GSH (glutathione) [1]: 4.66±0.28 µ mole GSH/g liver
- Hepatic parameters LP (lipid peroxidation) [1]: 61.08±3.39 n mole MDA/g liver
- Serum parameter ALP [1]: 66.80±3.53 µ mole of p-nitrophenol formed /min/L
- Serum parameter Albumin [1]: 3.06±0.07 g %
- Serum parameter Bilirubin [1]: 0.70±0.03 mg %
- Serum parameter TG [1]: 80.15±3.53 mg %
- ALP % protection [2]: 21.48%
- Albumin % protection [2]: 21.43%
- Bilirubin % protection [2]: 12.24%
- GOT % protection [2]: 36.64%
- GPT % protection [2]: 39.44%
- GSH % protection [2]: 27.86%
- LP % protection [2]: 43.53%
- TG % protection [2]: 17.63%
- Hepatic parameters GSH (glutathione) [3]: 5.93±0.32 µ mole GSH/g liver
- Hepatic parameters LP (lipid peroxidation) [3]: 52.61±2.25 n mole MDA/g liver
- Serum parameter ALP [3]: 59.10±3.09 µ mole of p-nitrophenol formed /min/L
- Serum parameter Albumin [3]: 3.25±0.14 g %
- Serum parameter Bilirubin [3]: 0.59±0.03 mg %
- Serum parameter TG [3]: 74.38±3.78 mg %
- ALP % protection [4]: 38.72%
- Albumin % protection [4]: 35.00%
- Bilirubin % protection [4]: 34.69%
- GOT % protection [4]: 55.43%
- GPT % protection [4]: 51.01%
- GSH % protection [4]: 52.96%
- LP % protection [4]: 59.38%
- TG % protection [4]: 27.13%
- Hepatic parameters GSH (glutathione) [5]: 6.72±0.28 µ mole GSH/g liver
- Hepatic parameters LP (lipid peroxidation) [5]: 45.46±2.79 n mole MDA/g liver
- Serum parameter ALP [5]: 51.20±1.42 µ mole of p-nitrophenol formed /min/L
- Serum parameter Albumin [5]: 3.55±0.22 g %
- Serum parameter Bilirubin [5]: 0.50±0.03 mg %
- Serum parameter TG [5]: 59.85±1.88 mg %
- ALP % protection [6]: 56.40%
- Albumin % protection [6]: 56.43%
- Bilirubin % protection [6]: 53.06%
- GOT % protection [6]: 58.92%
- GPT % protection [6]: 59.79%
- GSH % protection [6]: 68.57%
- LP % protection [6]: 72.76%
- TG % protection [6]: 51.06%
- Hepatic parameters GSH (glutathione) [7]: 7.02±0.46 µ mole GSH/g liver
- Hepatic parameters LP (lipid peroxidation) [7]: 44.22±1.66 n mole MDA/g liver
- Serum parameter ALP [7]: 46.37±1.89 µ mole of p-nitrophenol formed /min/L
- Serum parameter Albumin [7]: 3.91±0.12 g %
- Serum parameter Bilirubin [7]: 0.42±0.02 mg %
- Serum parameter TG [7]: 49.31±1.47 mg %
- ALP % protection [8]: 67.21%
- Albumin % protection [8]: 32.14%
- Bilirubin % protection [8]: 69.38%
- GOT % protection [8]: 70.49%
- GPT % protection [8]: 66.08%
- GSH % protection [8]: 74.50%
- LP % protection [8]: 75.07%
- TG % protection [8]: 68.42%
- Hepatic parameters GSH (glutathione) [9]: 8.33±0.33 µ mole GSH/g liver
- Hepatic parameters LP (lipid peroxidation) [9]: 30.52±1.38 n mole MDA/g liver
- Serum parameter ALP [9]: 31.87±2.15 µ mole of p-nitrophenol formed /min/L
- Serum parameter Albumin [9]: 4.66±0.18 g %
- Serum parameter Bilirubin [9]: 0.27±0.02 mg %
- Serum parameter TG [9]: 31.10±2.39 mg %
- Serum parameter GOT (Acteoside only (Per-se), 5 mg/kg p.o., no CCl4, mean ± SE of six animals, unit = µ mole pyruvate/min/L): 94.71±5.29 Units
- overall percent protection (with reference to all the parameters studied, CCl4, dose of 1.25 mg upto 5 mg/kg): 40-80%

SMILES: CC1(C)[C@@H](O[C@H]2O[C@H](C(=O)O)[C@@H](O)[C@H](O)[C@H]2O[C@@H]2O[C@H](C(=O)O)[C@@H](O)[C@H](O)[C@H]2O)CC[C@]2(C)[C@H]3C(=O)C=C4[C@@H]5C[C@@](C)(C(=O)O)CC[C@]5(C)CC[C@@]4(C)[C@]3(C)CC[C@@H]12 [Glycyrrhizin, reference compound]
- Hepatic parameters GSH (glutathione) [10]: 5.96 ±0.26 µ mole GSH/g liver
- Hepatic parameters LP (lipid peroxidation) [10]: 54.37 ± 4.32 n mole MDA/g liver
- Serum parameter ALP [10]: 55.63 ± 3.52 µ mole of p-nitrophenol formed /min/L
- Serum parameter Albumin [10]: 3.30 ± 0.12 g %
- Serum parameter Bilirubin [10]: 0.55 ± 0.04 mg %
- Serum parameter TG [10]: 65.31 ± 3.69 mg %
- Serum parameter GOT [11]: 494.27 ± 36.28 Units
- Serum parameter GPT [11]: 746.87 ± 49.77 Units
- ALP % protection [12]: 46.48%
- Albumin % protection [12]: 38.57%
- Bilirubin % protection [12]: 42.85%
- GOT % protection [12]: 56.44%
- GPT % protection [12]: 53.87%
- GSH % protection [12]: 53.55%
- LP % protection [12]: 56.08%
- TG % protection [12]: 42.07%
